Measured values published in patent publication US20140241995A1, “MICROPATCH FOR ASSESSING CHEMICAL CONTACT ALLERGY” (priority 2011, published 2014).
“And” between values parts separate entries of the source, which are not always exact repeats. Equal values may be shown once. Read-outs that look alike come from different tables or passages of the source.

Columns and labels:
subjects = conditions: cited from earlier work
patch tested subjects = conditions: PPD patch testing, cited from earlier work
[1] = tested on: volunteers with a positive history of contact allergy to p-phenylenediamine; assay: Occluded patch test with p-phenylenediamine in petrolatum at treatment diameters of 8, 4, 3 and 2 mm; assay type: in vivo, human; conditions: 0.1% or 1.0% in petrolatum, under occlusion, diameters 8, 4, 3, 2 mm; reactions at 48 h, 72 h and/or 96 h
Method: 15 volunteers with a positive history of contact allergy to p-phenylenediamine were recruited. Contact allergy to p-phenylenediamine was determined based on their response to a standard 48 h, 8 mm diagnostic patch test with 1% p-phenylenediamine in petrolatum. According to their known sensitivity, these volunteers were tested with either 0.1% or 1.0% p-phenylenediamine in petrolatum, under occlusion, with treatment diameters of 8, 4, 3, and 2 mm. Reactions at 48 h, 72 h and/or 96 h were recorded using the Internationally accepted dermatology grading scale of N, ?+, +, ++. The responses were transposed into numerical values (0-3 respectively) and summated. The summated scores are presented below.

| Compound | % sensitised (subjects; Row 1: diameter 3 cm, area 7.1 cm^2, total 1000 μg, 142 μg/cm^2) | % sensitised (subjects; Row 2: diameter 3 cm, area 7.1 cm^2, total 500 μg, 71 μg/cm^2) | % sensitised (subjects; Row 3: diameter 3 cm, area 7.1 cm^2, total 250 μg, 35.4 μg/cm^2) | % sensitised (subjects; Row 4: diameter 3 cm, area 7.1 cm^2, total 125 μg, 17.1 μg/cm^2) | % sensitised (subjects; Row 5: diameter 3 cm, area 7.1 cm^2, total 62.5 μg, 8.8 μg/cm^2) | % sensitised (subjects; Row 6: diameter 1.5 cm, area 1.8 cm^2, total 62.5 μg, 35.4 μg/cm^2) | % sensitised (subjects; Row 7: diameter 2.1 cm, area 3.5 cm^2, total 58 μg, 16.4 μg/cm^2) | % sensitised (subjects; Row 8: diameter 3 cm, area 7.1 cm^2, total 116 μg, 16.4 μg/cm^2) | % sensitised (subjects; Row 9: diameter 4.25 cm, area 14.2 cm^2, total 232 μg, 16.4 μg/cm^2) | % sensitised (subjects; Row 10: l cm paper, area 0.8 cm^2, total 30 μg, 38 μg/cm^2) | % sensitised (subjects; Row 11: 3 mm paper, area 0.08 cm^2, total 3 μg, 38 μg/cm^2) | rate of sensitization caused by the test (patch tested subjects; Dawe et al. 2004) | incidence of active sensitization (patch tested subjects; Devos and van der Valk 2001) | impact of reduced patch test diameter on the reaction intensity observed [1] |
| --- | --- | --- | --- | --- | --- | --- | --- | --- | --- | --- | --- | --- | --- | --- |
| O=[N+]([O-])c1ccc(Cl)c([N+](=O)[O-])c1 [DNCB, 2,4-dinitrochlorobenzene] | 100% | 100% | 83% | 63% | 8% | 85% and 86% | 55% | 50% | 66% | 93% | 26% | – | – | – |
| Nc1ccc(N)cc1 [PPD, para-phenylenediamine] | – | – | – | – | – | – | – | – | – | – | – | less than 0.2% | 1.5% | no detectable impact |
